The test concerns D1-Cre mice with +HTP or ddHTP in left dorsal striatum. The experiment in a line: open-field turning (locomotor) assay, unilateral delivery to dSPNs of dorsal striatum. In kind it is in vivo, mouse. The conditions noted are these: for open-field turning, +HTP mice / open-field turning, ddHTP mice: 10:1 mixture with Alexa488.1DART.2 infused into left dorsal striatum. The procedure: Mice: For behavioral experiments, mice strains included Drd1A-Cre (GENSAT EY262). For slice experiments, Drd1A-Cre were used. Mice were singly housed post-surgery, in a 12-hour reverse light cycle, with food and water provided ad libitum. Recombinant adeno-associated viral (rAAV) vectors.
Behavioral assays: Assays were performed at least 3 weeks after viral injection to allow for recombinant protein expression. Mice were acclimated to head-fixation for 3 consecutive days prior to behavioral experiments. Reagents were infused into the brain via the cranial cannula. Immediately following infusion, mice were placed into open-field chambers (27 cm×27 cm) in the dark, and behavior was recorded using infrared video.
These advances were combined in a mouse locomotor assay. AAV-DIO-^+HTPGPI or AAV-DIO-ddHTPGPI were expressed in the left dorsal striatum of D1-Cre mice, and implanted a unilateral cannula. Three weeks later, a baseline open-field behavior (saline infusion) was obtained; followed one week later by infusion of a 10:1 mixture of YM90K.1DART.2/Alexa488.1DART.2 (FIG. 3A). Mice were perfused for histology 24 hrs later, and quantitative measurement of the integrated Alexa capture over the dorsal striatum was performed. The magnitude of open-field turning vs dye capture (FIG. 3C) was then plotted A control was also performed as above using DART.1 and non-DART fluorescent dye (fluorogold) (FIG. 3B and FIG. 3D). Three points merit emphasis. […] Second, the data yielded a tight correlation between behavioral effects and histology; in particular the four animals with the weakest behavioral impact corresponded to those with little dye capture, providing an unbiased parameter with which to exclude these animals due to technical failure. Such a correlation was not seen with the original technology, despite efforts to estimate cannula patency with a non-DART fluorescent tracer. Third, in these behaving mice, YM90K.1DART.2 was substantially more efficacious than its predecessor, driving a 3-fold larger impact in a locomotor assay following unilateral delivery to dSPNs of the dorsal striatum (FIG. 3E and FIG. 3F). Experiments in acute striatal brain slice confirmed the performance boost afforded by DART.2. Low-dose, YM90K.1DART.2 produced rapid AMPAR antagonism on +HTP neurons, achieving half-block after only 5 min of a 0.3 µM dose. This represents a ˜10-fold acceleration in comparison to its predecessor, which required 15 min of a 1 µM dose to achieve a similar block. Neither reagent produced any measurable impact on −HTP or ddHTP neurons at these doses. However, only YM90K.1DART.2 offered kinetics fast enough for routine slice physiology experiments.

For `COc1cc(CCCCl)ccc1CCOCCNC(=O)c1ccc(CNC(=O)CCOCCOCCOCCOCCOCCOCCOCCOCCOCCOCCOCCOCCOCCOCCOCCOCCOCCOCCOCCOCCOCCOCCOCCOCCOCCOCCOCCOCCOCCOCCOCCOCCOCCOCCOCCOCCn2cc(COCCOCCOCCOCCOCCOCCNC(=O)CCCn3c(=O)c(=O)[nH]c4cc([N+](=O)[O-])c(-n5ccnc5)cc43)nn2)cc1` [YM90K.1DART.2], the “open-field turning, +HTP mice” value is “a turning bias in +HTP mice was seen” and the “open-field turning, ddHTP mice” value is reported as “no turning bias”. Moreover, where the note is “listed as YM90K.1^DART.2”, the “open-field turning, +HTP mice” value is listed as “turned in proportion to dye capture” and the “open-field turning, ddHTP mice” value was “little turning”. For the same compound, for the setting “unilateral delivery to dSPNs of the dorsal striatum”, the “impact in locomotor assay / behavioral potency in comparison to predecessor” value was 3 fold.

Source of the values: patent publication US20250213700A1, “COMPOUNDS, COMPOSITIONS, AND METHODS FOR CELL-SPECIFIC PHARMACOLOGY” (Duke University, priority 2022, published 2025).
